System: gastric cancer cell line TSGH-9201
Assay: In vitro survival assay (MTT) for anti-gastric cancer effects
Format: cell-based
Conditions: Homo sapiens, TSGH-9201 cells, 48 hours treatment, read-out: IC50 (half inhibition concentration), survival of gastric cancer cells
Procedure: Inhibiting effects of gastric cancer cells by cyclohexenone compounds of Antrodia camphorata from example 1 were assessed according to the anticancer-drug screening model of National Cancer Institute (NCI). The compound 4-hydroxy-2,3-dimethoxy-6-methyl-5-(3,7,11-trimethyl-dodeca-2,6,10-trienyl)-cyclohex-2-enone from example 1 was added into the culture media of gastric cancer cell line TSGH-9201 to determine the survival rates. Survival of cell was analyzed using MTT assay. TSGH-9201 cell line was a human gastric carcinoma cell line.
MTT assay is commonly used to analyze cell proliferation, survival rate of viable cells and cytotoxicity. MTT (3[4,5-dimethylthiazol-2-yl]-2,5-diphenyltetrazolium bromide) is a yellow dye which can be converted to water-insoluble purple formazan on the reductive cleavage of its tetrazolium ring by the succinate tetrazolium reductase in mitochondria of cells. The amount of formazan produced is used to detect the number of viable cells and calculate the survival rates.
The TSGH-9201 cells were cultivated in DMEM medium supplemented with 10% fetal bovine serum, 100 U/ml of Penicillin and 100 μg/ml of Streptomycin at 37° C., 5% CO2 for 24 hours. Proliferated cells were washed once with PBS, treated with 1× trypsin-EDTA, and centrifuged at 1200 rpm for 5 min. […] The absorbances were measured at 570 nm with an ELISA Reader to determine the survival rates.

## COC1=C(OC)C(O)C(C/C=C(\C)CC/C=C(\C)CCC=C(C)C)C(C)C1=O (stereo not shown) [formula 2, 4-hydroxy-2,3-dimethoxy-6-methyl-5-(3,7,11-trimethyl-dodeca-2,6,10-trienyl)-cyclohex-2-enone]
  IC50: 1.32 µg/mL
